Measurements reported in ChEMBL document CHEMBL5505992, “Novel membrane-targeting isoxanthohumol-amine conjugates for combating methicillin-resistant Staphylococcus aureus (MRSA) infections” (Eur J Med Chem, 2024).
Values after ≈ are worked out from the molar mass of the structure shown. Active and inactive are the calls of the source. The rule behind the calls is not given here.

Experiments:
Staphylococcus aureus [1] = test: Bactericidal activity against Staphylococcus aureus ATCC 29213 assessed as inhibition of bacterial growth at 8 times MIC measured within 0.5 to 1 hrs by time kill assay; format: functional, organism-based; conditions: time 0.5-1 hrs
Staphylococcus aureus [2] = test: Antibacterial activity against methicillin-resistant Staphylococcus aureus infected in Kunming mouse skin infection model assessed as reduction in number of bacterial cells at 4 mg/kg,sc measured after 24 hrs; format: functional, organism-based
Staphylococcus aureus [3] = test: Antibacterial activity against methicillin-resistant Staphylococcus aureus infected in Kunming mouse skin infection model assessed as decrease in bacterial load at 4 mg/kg,sc measured after 24 hrs; format: functional
Staphylococcus aureus [4] = test: Antibacterial activity against methicillin-resistant Staphylococcus aureus infected in Kunming mouse skin infection model assessed as effect on skin abscesses in dorsal surface at 4 mg/kg,sc measured after 24 hrs; format: functional, organism-based
Staphylococcus aureus [5] = test: Antibacterial activity against methicillin-resistant Staphylococcus aureus infected in Kunming mouse skin infection model assessed as reduction in inflammatory cells at 4 mg/kg,sc measured after 24 hrs; format: functional, organism-based
Staphylococcus aureus [6] = test: Antibacterial activity against methicillin-resistant Staphylococcus aureus infected in Kunming mouse skin infection model assessed as decrease in bacterial load at 4 mg/kg,sc measured after 24 hrs relative to control; format: functional; set-up: scale not given: the % may be the effect or the level left
Staphylococcus aureus [7] = test: Antibacterial activity against methicillin-resistant Staphylococcus aureus infected in Kunming mouse skin infection model assessed as effect on skin abscesses at 4 mg/kg,sc measured after 24 hrs; format: functional, organism-based
Staphylococcus aureus [8] = test: Bactericidal activity against methicillin-resistant Staphylococcus aureus clinical isolate MRSA-16 assessed as inhibition of bacterial growth at 8 times MIC measured within 0.5 to 1 hrs by time kill assay; format: functional, organism-based; conditions: time 0.5-1 hrs
Staphylococcus aureus [9] = test: Drug resistance, ratio of MIC for Staphylococcus aureus ATCC 29213 after 15 passages exposure to MIC for Staphylococcus aureus ATCC 29213 during first exposure; format: functional
Staphylococcus aureus [10] = test: Antibacterial activity against Staphylococcus aureus ATCC 29213 at sub-inhibitory concentration measured after 4 passages for 16 to 18 hrs; format: functional, organism-based; conditions: time 16-18 hrs
Cell membrane [11] = test: Induction of cytoplasmic membrane depolarization in methicillin-resistant Staphylococcus aureus clinical isolate MRSA-16 assessed as increase in fluorescence intensity at 32 ug/ml measured every 2 mins for 20 mins by SYTOX green staining based analysis; format: cell membranes; conditions: dose 32.0 µg/ml
Cell membrane [12] = test: Induction of cytoplasmic membrane depolarization in methicillin-resistant Staphylococcus aureus clinical isolate MRSA-16 assessed as fold increase in fluorescence intensity at 32 ug/ml measured every 2 mins for 20 mins by SYTOX green staining based analysis; format: cell membranes; conditions: dose 32.0 µg/ml
Cell membrane [13] = test: Induction of cell membrane depolarization in methicillin-resistant Staphylococcus aureus clinical isolate MRSA-16 assessed as fold increase in fluorescence intensity at 32 ug/ml measured every 2 mins for 20 mins by DISC3(5) staining based analysis; format: cell membranes; conditions: dose 32.0 µg/ml
Staphylococcus aureus [14] = test: Antibacterial activity against methicillin-resistant Staphylococcus aureus clinical isolate MRSA-22 measured after 16 to 18 hrs by CLSI method; format: functional; conditions: time 16-18 hrs
Escherichia coli = test: Antibacterial activity against Escherichia coli ATCC25922 measured after 16 to 18 hrs by CLSI method; format: functional; conditions: time 16-18 hrs
Staphylococcus aureus [15] = test: Antibacterial activity against methicillin-resistant Staphylococcus aureus clinical isolate MRSA-21 measured after 16 to 18 hrs by CLSI method; format: functional; conditions: time 16-18 hrs
[16] = Hemolytic activity in sheep erythrocytes incubated for 1 hr by absorbance based analysis; format: toxicity, cell-based, Ovis aries, Erythrocyte
[17] = Selectivity index, ratio of HC50 for hemolytic activity in sheep erythrocytes to MIC for antibacterial activity against Staphylococcus aureus ATCC 29213; format: toxicity, cell-based; conditions: read-out: Selectivity Index
Staphylococcus aureus [18] = test: Antibacterial activity against Staphylococcus aureus ATCC 29213 measured after 16 to 18 hrs by CLSI method; format: functional; conditions: time 16-18 hrs
Staphylococcus aureus [19] = test: Antibacterial activity against methicillin-resistant Staphylococcus aureus clinical isolate MRSA-11 measured after 16 to 18 hrs by CLSI method; format: functional; conditions: time 16-18 hrs
Staphylococcus aureus [20] = test: Antibacterial activity against methicillin-resistant Staphylococcus aureus clinical isolate MRSA-13 measured after 16 to 18 hrs by CLSI method; format: functional; conditions: time 16-18 hrs
Staphylococcus aureus [21] = test: Antibacterial activity against methicillin-resistant Staphylococcus aureus clinical isolate MRSA-23 measured after 16 to 18 hrs by CLSI method; format: functional; conditions: time 16-18 hrs
Staphylococcus aureus [22] = test: Antibacterial activity against methicillin-resistant Staphylococcus aureus clinical isolate MRSA-17 measured after 16 to 18 hrs by CLSI method; format: functional; conditions: time 16-18 hrs
Staphylococcus aureus [23] = test: Antibacterial activity against methicillin-resistant Staphylococcus aureus clinical isolate MRSA-20 measured after 16 to 18 hrs by CLSI method; format: functional; conditions: time 16-18 hrs
Staphylococcus aureus [24] = test: Antibacterial activity against methicillin-resistant Staphylococcus aureus clinical isolate MRSA-14 measured after 16 to 18 hrs by CLSI method; format: functional; conditions: time 16-18 hrs
Staphylococcus aureus [25] = test: Antibacterial activity against methicillin-resistant Staphylococcus aureus clinical isolate MRSA-18 measured after 16 to 18 hrs by CLSI method; format: functional; conditions: time 16-18 hrs
Staphylococcus aureus [26] = test: Antibacterial activity against methicillin-resistant Staphylococcus aureus clinical isolate MRSA-16 measured after 16 to 18 hrs by CLSI method; format: functional; conditions: time 16-18 hrs

## CN[C@H](CC(C)C)C(=O)N[C@H]1C(=O)N[C@@H](CC(N)=O)C(=O)N[C@H]2C(=O)N[C@H]3C(=O)N[C@H](C(=O)N[C@H](C(=O)O)c4cc(O)cc(O)c4-c4cc3ccc4O)[C@H](O)c3ccc(c(Cl)c3)Oc3cc2cc(c3O[C@@H]2O[C@H](CO)[C@@H](O)[C@H](O)[C@H]2O[C@H]2C[C@](C)(N)[C@H](O)[C@H](C)O2)Oc2ccc(cc2Cl)[C@H]1O [VANCOMYCIN]
Staphylococcus aureus [1]
  Activity: Active
Staphylococcus aureus [2]
  Activity: Active
Staphylococcus aureus [3]
  Activity: 1.6 log10CFU/g
Staphylococcus aureus [4]
  Activity: Active
Staphylococcus aureus [5]
  Activity: Active
Staphylococcus aureus [6]
  Activity: 97.67%
Staphylococcus aureus [7]
  Activity: Active
Staphylococcus aureus [8]
  Activity: Active

## CCn1cc(C(=O)O)c(=O)c2cc(F)c(N3CCNCC3)cc21 [NORFLOXACIN]
Staphylococcus aureus [9]
  fold change (FC): 128
Staphylococcus aureus [10]
  Activity: Active

## CC[C@H](C)[C@H](NC(=O)CN)C(=O)NCC(=O)N[C@@H](C)C(=O)N[C@H](C(=O)N[C@@H](CC(C)C)C(=O)N[C@@H](CCCCN)C(=O)N[C@H](C(=O)N[C@@H](CC(C)C)C(=O)N[C@H](C(=O)N[C@H](C(=O)NCC(=O)N[C@@H](CC(C)C)C(=O)N1CCC[C@H]1C(=O)N[C@@H](C)C(=O)N[C@@H](CC(C)C)C(=O)N[C@H](C(=O)N[C@@H](CO)C(=O)N[C@@H](Cc1c[nH]c2ccccc12)C(=O)N[C@H](C(=O)N[C@@H](CCCCN)C(=O)N[C@@H](CCCNC(=N)N)C(=O)N[C@@H](CCCCN)C(=O)N[C@@H](CCCNC(=N)N)C(=O)N[C@@H](CCC(N)=O)C(=O)N[C@@H](CCC(N)=O)C(N)=O)[C@@H](C)CC)[C@@H](C)CC)[C@@H](C)O)[C@@H](C)O)C(C)C)C(C)C
Cell membrane [11]
  Activity: Active
Cell membrane [12]
  fold change (FC): 7
Cell membrane [13]
  fold change (FC): 4.4

## CCCN(CCC)CCCOc1ccc(C2CC(=O)c3c(OC)cc(OCCCN(CCC)CCC)c(CC=C(C)C)c3O2)cc1 (centres undefined)
Staphylococcus aureus [14]
  MIC: 16 µg/mL (≈ 25.1 µM)
Escherichia coli
  MIC: > 128 µg/mL
Staphylococcus aureus [15]
  MIC: 16 µg/mL (≈ 25.1 µM)
[16]
  HC50 at 1 h: > 1280 µg/mL
[17]
  selectivity ratio: > 80
Staphylococcus aureus [18]
  MIC: 16 µg/mL (≈ 25.1 µM)
Staphylococcus aureus [19]
  MIC: 16 µg/mL (≈ 25.1 µM)
Staphylococcus aureus [20]
  MIC: 8 µg/mL (≈ 12.6 µM)
Staphylococcus aureus [21]
  MIC: 16 µg/mL (≈ 25.1 µM)
Staphylococcus aureus [22]
  MIC: 8 µg/mL (≈ 12.6 µM)
Staphylococcus aureus [23]
  MIC: 16 µg/mL (≈ 25.1 µM)
Staphylococcus aureus [24]
  MIC: 16 µg/mL (≈ 25.1 µM)
Staphylococcus aureus [25]
  MIC: 16 µg/mL (≈ 25.1 µM)
Staphylococcus aureus [26]
  MIC: 8 µg/mL (≈ 12.6 µM)

## COc1cc(OCCCCCN2CCCCC2C)c(CC=C(C)C)c2c1C(=O)CC(c1ccc(OCCCCCN3CCCCC3C)cc1)O2 (centres undefined)
Staphylococcus aureus [14]
  MIC: 16 µg/mL (≈ 23.2 µM)
Escherichia coli
  MIC: > 128 µg/mL
Staphylococcus aureus [15]
  MIC: 8 µg/mL (≈ 11.6 µM)
[16]
  HC50 at 1 h: 292 µg/mL
[17]
  selectivity ratio: 9.1
Staphylococcus aureus [18]
  MIC: 32 µg/mL (≈ 46.4 µM)
Staphylococcus aureus [19]
  MIC: 16 µg/mL (≈ 23.2 µM)
Staphylococcus aureus [20]
  MIC: 16 µg/mL (≈ 23.2 µM)
Staphylococcus aureus [21]
  MIC: 16 µg/mL (≈ 23.2 µM)
Staphylococcus aureus [22]
  MIC: 8 µg/mL (≈ 11.6 µM)
Staphylococcus aureus [23]
  MIC: 16 µg/mL (≈ 23.2 µM)
Staphylococcus aureus [24]
  MIC: 16 µg/mL (≈ 23.2 µM)
Staphylococcus aureus [25]
  MIC: 16 µg/mL (≈ 23.2 µM)
Staphylococcus aureus [26]
  MIC: 8 µg/mL (≈ 11.6 µM)

## COc1cc(OCCCCN2CCN(C)CC2)c(CC=C(C)C)c2c1C(=O)CC(c1ccc(OCCCCN3CCN(C)CC3)cc1)O2 (centres undefined)
Staphylococcus aureus [14]
  MIC: 32 µg/mL (≈ 48.3 µM)
Escherichia coli
  MIC: > 128 µg/mL
Staphylococcus aureus [15]
  MIC: 32 µg/mL (≈ 48.3 µM)
[16]
  HC50 at 1 h: > 1280 µg/mL
[17]
  selectivity ratio: > 40
Staphylococcus aureus [18]
  MIC: 32 µg/mL (≈ 48.3 µM)
Staphylococcus aureus [19]
  MIC: 32 µg/mL (≈ 48.3 µM)
Staphylococcus aureus [20]
  MIC: 32 µg/mL (≈ 48.3 µM)
Staphylococcus aureus [21]
  MIC: 32 µg/mL (≈ 48.3 µM)
Staphylococcus aureus [22]
  MIC: 16 µg/mL (≈ 24.1 µM)
Staphylococcus aureus [23]
  MIC: 32 µg/mL (≈ 48.3 µM)
Staphylococcus aureus [24]
  MIC: 32 µg/mL (≈ 48.3 µM)
Staphylococcus aureus [25]
  MIC: 32 µg/mL (≈ 48.3 µM)
Staphylococcus aureus [26]
  MIC: 32 µg/mL (≈ 48.3 µM)

## COc1cc(OCCCCCN2CCCCC2)c(CC=C(C)C)c2c1C(=O)CC(c1ccc(OCCCCCN3CCCCC3)cc1)O2 (centres undefined)
Staphylococcus aureus [14]
  MIC: 8 µg/mL (≈ 12.1 µM)
Escherichia coli
  MIC: > 128 µg/mL
Staphylococcus aureus [15]
  MIC: 8 µg/mL (≈ 12.1 µM)
[16]
  HC50 at 1 h: 151 µg/mL
[17]
  selectivity ratio: 18.9
Staphylococcus aureus [18]
  MIC: 8 µg/mL (≈ 12.1 µM)
Staphylococcus aureus [19]
  MIC: 8 µg/mL (≈ 12.1 µM)
Staphylococcus aureus [20]
  MIC: 8 µg/mL (≈ 12.1 µM)
Staphylococcus aureus [21]
  MIC: 8 µg/mL (≈ 12.1 µM)
Staphylococcus aureus [22]
  MIC: 4 µg/mL (≈ 6.05 µM)
Staphylococcus aureus [23]
  MIC: 8 µg/mL (≈ 12.1 µM)
Staphylococcus aureus [24]
  MIC: 8 µg/mL (≈ 12.1 µM)
Staphylococcus aureus [25]
  MIC: 8 µg/mL (≈ 12.1 µM)
Staphylococcus aureus [26]
  MIC: 8 µg/mL (≈ 12.1 µM)
